According to ChEMBL document CHEMBL1201862, “PubChem BioAssay data set” (2004):
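Cells were grown in 96-well plates and exposed to each compound for 48 hours at five concentrations; endpoints were interpolated linearly between bracketing concentrations, or set to the highest concentration if not reached. GI50: concentration for 50% inhibition of growth.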 The source made the active and inactive calls. Rule as the data show it: active = GI50 up to about 1.1 µM and inactive = higher.

Assays:
Assay in all cases: inhibition of tumour cell growth, NCI panel, 48 h
786-0 = system: 786-0
A549 = system: A549
ACHN = system: ACHN
CAKI-1 = system: CAKI-1
COLO 205 = system: COLO 205
EKVX = system: EKVX
HCC 2998 = system: HCC 2998
M14 = system: M14
MCF7 = system: MCF7
NCI/ADR-RES = system: NCI/ADR-RES
OVCAR-4 = system: OVCAR-4
OVCAR-8 = system: OVCAR-8
RXF 393 = system: RXF 393
SF-295 = system: SF-295
SK-MEL-5 = system: SK-MEL-5
SNB-19 = system: SNB-19
UACC-257 = system: UACC-257
UACC-62 = system: UACC-62
NCI-H460 = system: NCI-H460

Measured: GI50

Cc1ccc(C2=NOC(=O)[C@@H]3CCCC[C@@H]23)cc1
inactive: 786-0 > 100 µM | A549 > 10 µM | ACHN > 100 µM | CAKI-1 > 100 µM | COLO 205 > 100 µM | EKVX > 100 µM | HCC 2998 > 100 µM | M14 > 100 µM | MCF7 > 100 µM | NCI/ADR-RES > 100 µM | OVCAR-4 > 100 µM | OVCAR-8 > 100 µM | RXF 393 > 100 µM | SF-295 > 100 µM | SK-MEL-5 > 100 µM | SNB-19 > 100 µM | UACC-257 > 100 µM | UACC-62 > 100 µM

COc1ccc(-n2c(-c3ccccc3)cc(-c3cccs3)c2-c2cccs2)cc1
inactive: 786-0 > 100 µM | A549 39.4 µM | ACHN > 100 µM | CAKI-1 > 100 µM | COLO 205 > 100 µM | EKVX > 100 µM | HCC 2998 > 100 µM | M14 > 100 µM | MCF7 > 100 µM | NCI-H460 > 100 µM | NCI/ADR-RES > 100 µM | OVCAR-4 56.6 µM | OVCAR-8 > 100 µM | RXF 393 76.9 µM | SF-295 > 100 µM | SK-MEL-5 > 100 µM | UACC-257 > 100 µM | UACC-62 > 100 µM

O=P1(N(CCCl)CCCl)Oc2ccc(Cl)cc2C(C(Cl)(Cl)Cl)c2cc(Cl)ccc2O1 (configuration not stated)
inactive: 786-0 12.4 µM | A549 5.4 µM | ACHN 15.5 µM | CAKI-1 16.5 µM | COLO 205 12.9 µM | EKVX 18.6 µM | HCC 2998 10.9 µM | M14 18.8 µM | MCF7 10.4 µM | NCI-H460 8.28 µM | NCI/ADR-RES 14.8 µM | OVCAR-4 20.7 µM | OVCAR-8 25.5 µM | RXF 393 12.7 µM | SF-295 3.68 µM | SK-MEL-5 11.4 µM | UACC-257 18 µM | UACC-62 12.6 µM

O=C1C(Nc2ccccc2)=CC2=NCCc3n[nH]c1c32
inactive: 786-0 38.5 µM | A549 84.9 µM | ACHN 55.6 µM | CAKI-1 72.6 µM | COLO 205 33.1 µM | EKVX 41.1 µM | HCC 2998 34.8 µM | M14 46.8 µM | MCF7 26.7 µM | NCI-H460 35.9 µM | NCI/ADR-RES 28.6 µM | OVCAR-4 27.2 µM | OVCAR-8 21 µM | RXF 393 > 100 µM | SF-295 38.6 µM | SK-MEL-5 18.5 µM | SNB-19 63.8 µM | UACC-62 21.5 µM

CSCC[C@H]1C(=O)N=C(N)N1C(=O)OCc1ccccc1
inactive: 786-0 26.2 µM | ACHN 34.7 µM | CAKI-1 20 µM | COLO 205 18.7 µM | EKVX 53.6 µM | HCC 2998 95.9 µM | MCF7 28.8 µM | NCI-H460 41 µM | NCI/ADR-RES 30.8 µM | OVCAR-4 46.5 µM | OVCAR-8 29 µM | RXF 393 17.3 µM | SF-295 61.7 µM | SK-MEL-5 46.8 µM | SNB-19 > 100 µM | UACC-257 40.6 µM | UACC-62 19.1 µM

Cc1ccc(S(=O)(=O)NC(=O)C2=C(c3ccccc3)[N-]N(C)c3nc4cccc[n+]4nc32)cc1
inactive: 786-0 > 100 µM | A549 > 100 µM | ACHN > 100 µM | CAKI-1 > 100 µM | COLO 205 23.1 µM | EKVX 29.1 µM | HCC 2998 > 100 µM | M14 > 100 µM | MCF7 49.9 µM | NCI-H460 > 100 µM | NCI/ADR-RES > 100 µM | OVCAR-4 > 100 µM | OVCAR-8 51.6 µM | RXF 393 > 100 µM | SK-MEL-5 98.9 µM | SNB-19 > 100 µM | UACC-257 66.4 µM | UACC-62 > 100 µM
